Source: US11542508B2, “Isolated polynucleotides and polypeptides and methods of using same for expressing an expression product of interest” (priority 2016, dated 2023)
Entries after “also recorded” stand apart in the source; their conditions may differ.

Tests used:
phi3T = assay: Growth dynamics of phage-infected cultures (phi3T infection of B. subtilis 168); assay type: cell-based; conditions: B. subtilis 168 infected by phi3T at MOI=0.1, LB supplemented with synthesized peptide
Method: Specifically, overnight cultures of B. subtilis strain 168 were diluted 1:50 in LB media supplemented with 0.1 mM MnCl2 and 5 mM MgCl2, and incubated at 37° C. with shaking until reaching optical density (O.D) 600 nm=0.5. Phages (phi29, phi105, rho14 or phi3T) were added to the bacterial culture at MOI=1 and incubated for 3 hours. The media were centrifuged at 4000 rpm for 10 minutes at 4° C. and the supernatant was filtered with 0.2 μm filer (GE Healthcare Life Sciences, Whatman, CAT #10462200). Phages and large molecules were further filtered out from the media by using Amicon Ultra centrifugal filters at a cutoff of 3,000 NMWL (3 kDa) (Milipore, CAT #UFC900324). A plaque assay was performed in order to verify that no phages were left in the medium.
7.5 mg (per reaction) of Proteinase K-Agarose from Tritirachium album (Sigma, CAT #P9290) were washed twice with 750 μl of sterile water and then resuspended with 750 μl of LB supplemented with 0.1 mM MnCl2 and 5 mM MgCl2. Following, the tubes were centrifuged again and the supernatant was discarded. 1.5 ml of phi3T-derived conditioned medium or control medium was added to a tube containing the washed proteinase K. The media were incubated for 2 hours at 37° C. with the proteinase K. The media were centrifuged and the supernatants were collected for the infection assay.
(§1) Overnight cultures of bacteria were diluted 1:100 in LB media and incubated at 37° C. with shaking until reaching O.D 600 nm=0.1. The bacterial culture was centrifuged at 4000 rpm for 10 minutes at room temperature. The supernatant was discarded and the pellet was resuspended in LB medium supplemented with 0.1 mM MnCl2 and 5 mM MgCl2 at 10% of the initial volume. The concentrated bacterial culture was added to conditioned medium or medium supplemented with synthesized arbitrium peptide in a ratio of 1:9 (bacteria to medium) and incubated for 1 hour at room temperature. Following, the culture was infected with phages at MOI=0.1. Optical density measurements at a wavelength of 600 nm were taken using a TECAN Infinite 200 plate reader in a 96-wells plate.

spBeta = assay: Growth dynamics of phage-infected cultures (spBeta infection of B. subtilis BEST7003); assay type: cell-based; conditions: B. subtilis BEST7003 infected by spBeta at MOI=0.1, LB supplemented with synthesized peptide
Method: as §1

AimR = biological target: T1, AimR (Bacillus phage phi3T, UniProt P0DOE3); assay: Analytical gel filtration of purified AimR (oligomeric state); conditions: AimR:SAIRGA 1:2, AimR:GMPRGA 1:1 molar ratio
T1 construct: made in house; host or cells: E. coli BL21(DE3), pET28a
T1 sequence (P0DOE3 whole entry, looked up): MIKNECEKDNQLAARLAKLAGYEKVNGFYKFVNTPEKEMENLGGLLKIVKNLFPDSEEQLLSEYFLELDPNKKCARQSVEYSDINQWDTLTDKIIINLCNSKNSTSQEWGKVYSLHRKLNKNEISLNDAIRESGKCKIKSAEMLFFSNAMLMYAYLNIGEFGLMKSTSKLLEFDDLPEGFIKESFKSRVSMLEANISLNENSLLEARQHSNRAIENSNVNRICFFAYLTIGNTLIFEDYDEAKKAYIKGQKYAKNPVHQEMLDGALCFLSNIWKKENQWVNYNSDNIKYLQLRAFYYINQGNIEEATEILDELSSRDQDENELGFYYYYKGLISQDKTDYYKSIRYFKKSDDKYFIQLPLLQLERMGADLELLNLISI
Method: Following, AimR was expressed in E. coli BL21(DE3) cells with a C-terminal 6× His-tag. Expression was performed at 15° C. for about ˜18 hours using 200 μM IPTG (Isopropyl β-D-1-thiogalactopyranoside) as an inducer. The cells pellet was resuspended in lysis buffer [50 mM Tris pH 8, 0.3M NaCl, 20 mM Imidazole, 2 mM DTT, 0.2 mg/ml Lysozyme, 1 μg/ml DNAse, protease inhibitor cocktail (Calbiochem)], disrupted by a cell disrupter at 4° C. and clarified at 15,000 g for 30 minutes. The clarified lysate was loaded onto a HisTrap_FF_5 ml column (GE Healthcare) and washed with buffer containing 50 mM Tris pH 8, 0.3 M NaCl, 20 mM imidazole and 2 mM DTT. AimR was eluted from the column in one step with the same buffer containing 0.5 M imidazole. Fractions containing AimR were pooled and injected to a size exclusion column (HiLoad_16/60_Superdex_200_prepgrade,GE_Healthcare) equilibrated with 20 mM Tris pH 8, 0.3 M NaCl, 2 mM TCEP. Fractions containing pure AimR were pooled and flash frozen in aliquots using liquid nitrogen.
Pure AimR was injected to an analytical gel filtration column (Superdex_200_Increase_10/30 GL, GE Healthcare) equilibrated with buffer containing 20 mM Tris pH 8, 0.3 M NaCl, 2 mM TCEP. […]

phi3T AimR receptor = biological target: T2, phi3T AimR receptor (Bacillus phage phi3T, UniProt P0DOE3); assay type: binding; conditions: AimR 200 nM, peptide 9-4000 nM
T2 construct: made in house; host or cells: E. coli BL21(DE3), pET28a
T2 sequence (P0DOE3 whole entry, looked up): T1 sequence (P0DOE3 whole entry, looked up)
Method: Two-step purified 6×His-tagged AimR stored in Tris/NaCl buffer (50 mM Tris pH 8.0, 150 mM NaCl, 2 mM TCEP) at −80° C. was thawed on ice and centrifuged at 21,000 g for 10 minutes at 4° C. prior to analysis. Peptides [SAIRGA (SEQ ID NO: 269) and GMPRGA (SEQ ID NO: 271)] were solubilized in 50 mM Tris-HCl pH 8.0, 150 mM NaCl to a final concentration of 100 μM. AimR was diluted to 200 nM and was incubated with 16 different peptide concentrations varying between 9-4000 nM, which were prepared in Tris/NaCl buffer containing 0.1% [v/v] Pluronic acid (NanoTemper). Roughly 3 μl were loaded into NT.LabelFree Zero-Background Premium Coated Capillaries (NanoTemper) and inserted into a Monolith NT.LabelFree device (NanoTemper). MST experiments were performed at 60% MST power (infra-red laser) and 20% LED power at 23° C. using the Monolith NT.LabelFree instrument (Nanotemper). Ratios between normalized initial fluorescence and post-temperature-jump and thermophoresis were calculated and averaged from 3 independent runs (runs were incubated for 20 minutes at room temperature before the measurement). A plot of fluorescence ratios versus peptide concentration was used to assess the binding capacity of the phage protein and its cognate peptide ligand.

Substance | effect on the phage infection dynamics (culture lysis, growth curve) (phi3T) | effect on lysogeny / infection dynamics of spBeta (spBeta) | AimR oligomeric state (migration in gel filtration column) (AimR) | specific binding to the phi3T AimR receptor (MST) (phi3T AimR receptor)
AIRGA: shorter, 5 amino acids version of the SAIRGA peptide | neither observed; also recorded: do not guide lysogeny |  |  | 
GMPRGA: predicted mature AimP-derived arbitrium peptide of spBeta | did not affect the lysogeny profile of phi3T | promoted lysogeny of spBeta | did not lead to a change in the AimR oligomeric state | did not show specific binding
PhrC: a known quorum sensing peptide of B. subtilis (ERGMT) | neither observed |  |  | 
SAIRG: shorter, 5 amino acids version of the SAIRGA peptide | neither observed; also recorded: do not guide lysogeny |  |  | 
